This is an account of results in a melting point compilation (Tetko et al.; mined from patent text by program, amines drawn as free bases though some values may be those of a salt).

`COc1ccc(C2=NN(C3CCN(C(=O)CCCNC(=O)OC(C)(C)C)CC3)C(=O)[C@@H]3CC=CC[C@H]23)cc1OC`: the melting point fell in the range of 79 to 83 °C.
`CCN1CCCC1CNc1ccc(-c2ccnc(Nc3cc(OC)c(OC)c(OC)c3)n2)cn1` (centres undefined) registered a melting point of 81 to 82 °C.
Next, `CC(C)(C)OC(=O)N1CC2C(CCC3(C)C(C(=O)O)CCC23)C2(C)CCC(=O)C=C12` (centres undefined): 215 to 216 °C.
For the molecule `CCOC(=O)c1cc2cc(/C=C/C(=O)c3cc(OC)c(OC)c(OC)c3)cc(C(C)CC)c2oc1=O` (centres undefined), the melting point fell in the range of 138 to 139 °C.
The molecule `C=CCCOc1ccc2c(c1)C(=O)c1cc3ccccc3cc1C2=O` showed a melting point of 149 °C.
As to `Cc1nc(-n2cnn(CC3CC3(F)F)c2=O)sc1C(=O)NCc1cccnc1` (centres undefined), the melting point lay in the range of 160 to 161 °C.
`O=C(O)c1ccccc1Nc1ccnn1-c1ccccn1` came in with a melting point of 216 to 218 °C.
Take `Cc1cccc(C)c1N=CNc1c(C)cccc1C`: the melting point is 174 to 176 °C.
Consider `Cc1ccc2nc(-c3cc(C(F)(F)F)nn3-c3ccc(S(C)(=O)=O)cc3)sc2c1`, for which the melting point lay in the range of 202 to 204 °C.
Next, `COc1cc2c3c(n(C)c(=O)c2cc1OC)-c1cc2c(cc1C3=CCCCCl)OCO2`: 196 to 201 °C.
Next, `Cc1c(C(F)(F)F)noc1NS(=O)(=O)c1ccc(-c2ccccc2)cc1`: 139 to 140 °C.
`CN(C)CCCCC(=O)N1CCC(c2[nH]nc3c2C(=O)c2c(NC(=O)NN4CCOCC4)cccc2-3)CC1` came in with a melting point of 68 to 70 °C.
Next, `Cc1oc(-c2ccccc2)nc1CCc1ccc(/C=C/CO)cc1`: 102 to 103 °C; `OCC1CCCn2c(cc3ccccc32)C1` (centres undefined): 109 to 111 °C.
`CCOC(=O)c1c(CN2CCCC2)nc2cc(OC)c(OC)cc2c1-c1ccc(OC)c(OC)c1`: the melting point was in the range of 139 to 140 °C.
Next, `COc1ccc(N2C(=O)N(c3cccc(C(N)=O)c3)c3nc(Nc4cccc(CCN5CCN(C)CC5)c4)ncc3C2C)cc1` (centres undefined): 243 to 251 °C; `CC(Cl)c1ccc(-c2ccc(Cl)cc2)cc1` (centres undefined): 100 to 102 °C; `COC(=O)c1nc(Cl)nc(NCc2ccco2)c1Cl`: 110 to 112 °C.
The molecule `CCOC(=O)c1c(-c2ccc(F)cc2)c2ccccn2c1C(C)C` had a melting point of 99 to 100 °C.
Turning to `CC(C)CCc1c(-c2ccc(S(N)(=O)=O)cc2)cnn(-c2ccc(F)c(Cl)c2)c1=O`, the melting point was 154 to 156 °C.
`CC(C)(CO)NC(=O)c1ccccc1` yielded a melting point of 80 to 82 °C.
The molecule `C=CCOC(=O)COC(=O)c1c(Br)c(Br)c(C(=O)OCC(=O)OCC=C)c(Br)c1Br` yielded a melting point of 146 to 148 °C.
For the molecule `C=CCc1c(Cl)nc(NC=O)nc1Cl`, the melting point lay within 85 to 86 °C.
With `O=C(Oc1ccccc1)c1ccc(O)cc1O`, the melting point lay in the range of 135 to 137 °C.
`ClCc1ccc(Cl)nc1Cl` had a melting point of 115 to 130 °C.
On to `O=C(O)COc1cc2cc(C3CCCCC3)sc2c(Cl)c1Cl`, for which the melting point is 167 to 168 °C.
`O=S1(=O)NCN(CCF)c2cc(F)ccc21` yielded a melting point of 107 to 109 °C.
`COc1cc2c(cc1OC)C(c1ccco1)=NN=C(C)C2` showed a melting point of 155 to 157 °C.
Regarding `Cc1nn(C)c2cc(-c3ccc4nnn(Cc5ccc6ncccc6c5)c4n3)ccc12`, the melting point lay in the range of 159 to 163 °C.
Consider `CCCCc1ncc(C=O)n1Cc1ccc(C(=O)OC)c2ccccc12`, for which the melting point lay within 95.5 to 97 °C.
Next, `CCNC(CO)Cc1cn(Cc2ccccc2)cn1` (centres undefined): 109 to 110 °C; `CN(C)C(=O)N(C)Cc1cccc2c1C(=O)N(C1CCC(=O)NC1=O)C2=O` (centres undefined): 206 to 208 °C; `O=C(NCC1CC1)C(c1ccccc1)c1ccccc1`: 130 °C.
With `Cc1ccc(NCc2ccc(/C=C/C(=O)NO)cc2)cc1Nc1nccc(-c2cccnc2)n1`, the melting point fell in the range of 201 to 205 °C.
Consider `O=C(CCCN1CCC(O)CC1)c1ccccc1`, for which the melting point lay within 101 to 102 °C.
Take `COc1cc2cc(C(N)=O)cnc2cc1F`: the melting point came out at 231 °C.
Take `CC(Br)(CBr)CS(=O)(=O)Oc1ccc([N+](=O)[O-])cc1` (centres undefined): the melting point was 56 to 58 °C.
`COc1cc2c(cc1Nc1ncc(Cl)c(Nc3ccc(C#N)cc3OC)n1)CCN(CC(=O)N(C)C)CC2` returned a melting point of 92 to 105 °C.
As to `COc1ccc2c(c1)C(=O)OCN2c1ccccc1`, the melting point is 99.5 to 101 °C.
For the molecule `CC(=O)SCC(=Cc1ccc(Oc2ccccc2)cc1)C(=O)NCCC(=O)OCc1ccccc1`, the melting point worked out at 79 °C.
Next, `COc1cc(C)nc(N(C)C#N)n1`: 123 °C; `CSC1=Nc2ccncc2S(=O)(=O)N1C`: 135 to 138 °C; `CC(Br)C(=O)NS(=O)(=O)c1ccc2c(c1)CC(C)(C)O2` (centres undefined): 125 to 128 °C.
`O=C(O)c1cn(C2CC2)c2cc(N3CCNC(c4ccco4)C3)c(F)cc2c1=O` (centres undefined) gave a melting point of 176 °C.
As to `CC(=O)Nc1cccc(CNC(=O)c2[nH]c3ccc(Cl)cc3c2S(=O)(=O)c2ccccc2)c1`, the melting point lay in the range of 249 to 250 °C.
The molecule `CC(C)c1nn(-c2ccc([N+](=O)[O-])cn2)cc1CCCO` registered a melting point of 130 to 131 °C.
As for `CCNC(=O)c1ccc(-c2ccc3nnn(Cc4ccc5ncccc5c4)c3n2)cc1F`, the melting point lay in the range of 207 to 209 °C.
With `CCc1nc2cc(S(N)(=O)=O)c(Cl)cc2n1-c1ccc(CCNC(=O)NS(=O)(=O)c2ccc(C)cc2)cc1`, the melting point was 163 to 170 °C.
For `COC(=O)C(C(C)C)N(C)S(=O)(=O)c1ccc(-c2ccc(NC(=O)c3oc4cccc(C(O)CO)c4c3C)cc2)cc1` (centres undefined), the melting point fell in the range of 182 to 185 °C.
The molecule `CCc1cc(Oc2ncc(C(F)(F)F)cc2Cl)nn1C(=O)NC` yielded a melting point of 85 to 87 °C.
`COc1cc2c(cc1OC)C(C(S)(C#N)c1ccc(Cl)cc1)=NCC2` (centres undefined) came in with a melting point of 135 to 136 °C.
`CC(c1cc2cc(Cl)ccc2o1)N(O)C(N)=O` (centres undefined) showed a melting point of 174 to 175 °C.
As to `CC(C)(C)OC(=O)c1cc([N+](=O)[O-])cc([N+](=O)[O-])c1N(CCO)CCCl`, the melting point lay in the range of 106 to 107 °C.
In turn, `CC(C)N(CCC(CCN(C)C)(C(N)=O)c1ccccc1)C(C)C` (centres undefined) had a melting point of 75 to 78 °C.
Regarding `Cc1c(C)c2c(c(C)c1N)CC(C)(CI)O2` (centres undefined), the melting point fell in the range of 105 to 107 °C.
On to `CC(C)(C)OC(=O)Cn1c(C(=O)O)cc2cc(N)ccc21`, for which the melting point was determined as 128 °C.
In turn, `Cc1c(C)c2c(c(C)c1N)CC(C)(CN1CCC(CCc3ccccc3)CC1)O2` (centres undefined) had a melting point of 91 to 92 °C.
Regarding `O=C1CCCN1c1cn(-c2cccnc2)nc1Cl`, the melting point was 109 to 110 °C.
`Clc1ccc(N2CCN=C2C(Cn2cncn2)c2ccccc2)c(Cl)c1` (centres undefined) had a melting point of 78 to 82 °C.
Next, `CCOC(=O)c1coc2c(OC)ccc(C(=O)Cc3c(Cl)cncc3Cl)c12`: 142 to 143 °C; `COc1ccc(S(=O)(=O)c2ccccn2)cc1`: 112 °C.
As to `O=C(Nc1cccc(F)n1)c1cc(-c2ccc(Cl)c(Cl)c2)nc2ccccc12`, the melting point was in the range of 204 to 206 °C.
Next, `O=C(Oc1ccccc1)N1CCN(c2nn(S(=O)(=O)c3ccccc3)c3ccccc23)CC1`: 112 to 114 °C.
With `Cc1oc(-c2ccc(Cl)cc2)nc1COc1cccc(CN(O)C(N)=O)c1`, the melting point was 125 to 127 °C.
Take `Cn1cncc1C(O)(c1ccc(Cl)cc1)c1ccc2c(c1)C(c1cccc(Cl)c1)OCC(=S)N2` (centres undefined): the melting point is greater than 300 °C.
Next, `CCN(CCNS(=O)(=O)c1ccc(C)cc1)C(=O)c1ccccc1C(=O)c1ccc(Cl)cc1`: 145 to 147 °C; `CCOP(=O)(Cc1ccc(NC(=O)CCc2cnoc2-c2ccc(F)cc2)cc1)OCC`: 134 to 135 °C; `Brc1ccc2nc(Br)nn2c1`: 201 °C.
`COCN1C(C)=C(C(=O)O)[C@H](c2cccc([N+](=O)[O-])c2)C(C(=O)OCOC(=O)C(C)(C)C)=C1C` displayed a melting point of 84 to 85 °C.
On to `CN(C)CCNc1ccc(NCCN(CCO)CCO)c2c1C(=O)c1c(O)ccc(O)c1C2=O`, for which the melting point fell in the range of 204 to 205 °C.
`CCOC(=O)c1c(C#N)nn(-c2c(Cl)cc(C(F)(F)F)cc2Cl)c1N`: the melting point amounted to 202 °C.
As for `Nc1c(Cl)cc(C(O)CNCCCCCOCCc2cc3ccccc3o2)cc1Cl` (centres undefined), the melting point fell in the range of 49 to 52 °C.
The molecule `COc1ccc2c(c1)CCC1=C2CCC2(C)C(O)CCC12` (centres undefined) showed a melting point of 110 to 112 °C.
Next, `COc1ccc(S(=O)(=O)C(C(=O)NO)C(C)C)cc1` (centres undefined): 220 °C; `OC1(c2ccc(F)cc2)CCC2CNCCC2C1` (centres undefined): 174 to 175 °C.
Next, `O=C1OC(C(O)CO)CCN1Cc1ccccc1` (centres undefined): 100 to 102 °C; `CCCCCCc1nc2ccccc2n1Cc1ccc(C(=O)O)cc1`: 191 to 193 °C.
For `COc1ccc2c(c1)C(=O)CC(C)(C)O2`, the melting point lay within 71 to 73 °C.
`Cc1c(Nc2c(C#N)cnc3scc(C)c23)ccc2[nH]ccc12` showed a melting point of 261 °C.
In turn, `CCc1ccc(C2CCCN2S(=O)(=O)c2ccc(C)cc2)cc1` (racemic) yielded a melting point of 92 °C.
Next, `CCCn1nnc(NC(=O)C2c3ccccc3Oc3ccccc32)n1`: 208 to 209 °C.
The molecule `Cc1nc(CN(C)C)n(-c2ccc(Cl)cc2C(=O)c2ccccc2Cl)c1CN1C(=O)c2ccccc2C1=O` registered a melting point of 121 to 150 °C.
Molecule `C=CCOc1ccc(C(=O)C=Cc2cc(OC)c(C)c(OC)c2)cc1` returned a melting point of 143 to 144 °C.
In the case of `CCCCc1nc(C(=O)OC)c(C(=O)OC)[nH]1`, the melting point turned out to be 88 °C.
Molecule `CN1C(=O)CCc2cc(N3C[C@H](C(N)=O)OC3=O)cc(F)c21` showed a melting point of 260 to 262 °C.
`CC1=NC2(O)c3cc(-c4ccc(C(F)(F)F)cc4)ccc3CC2S1` (centres undefined): the melting point fell in the range of 213 to 217 °C.
Next, `O=C(c1ccccc1)c1ccc2sc(NCCO)nc2c1`: 159 °C; `COC(=O)C(OC)c1ccc2oc(-c3ccc(Cl)cc3)nc2c1` (centres undefined): 100 to 105 °C; `N#CC1=CC(Br)=NC1(N)C#N` (centres undefined): greater than 210 °C.
